# Laboratory results: publication PMC10120551, “Novel Glu-based pyrazolo[3,4-d]pyrimidine analogues: design, synthesis and biological evaluation as DHFR and TS dual inhibitors” (Journal of Enzyme Inhibition and Medicinal Chemistry, 2023)
# Like-named read-outs stand apart in the source and are kept apart here.
# Experiments:
# [1] = tested on: MCF-7 (Breast cancer); test: MTT cytotoxicity assay; format: cell-based, human
# Method: (§1) The MTT assay was carried out according to the procedure cited earlier. Briefly, in a 96-well plate, either cancer or normal cells were seeded (10^6 cells/cm^2; 100 µL/well) and incubated for 12 h at 37 °C and CO2 (5%), then serial dilutions of compound 6i were added and incubated for 48 h using DMSO control (0.5% V/V). MTT (3-(4,5-dimethylthiazoyl)-2,5-diphenyl-tetrazolium bromide; Cat. No. M-5655) 5 mg/mL was then added. After 4 h incubation, the formed MTT formazan crystals were solubilised by 10% Triton X-100 plus 0.1 N HCl in anhydrous isopropanol. The absorbance was read using a Bioline plate reader at λ570–630 nm[25–29]. The selectivity of 6i towards HSF cells was also determined as follows[30]^,[31]: SI=IC50HSF cells/IC50of cancer cells
# [2] = tested on: HSF (Normal human skin fibroblast) cells; test: MTT cytotoxicity assay; format: cell-based; details: HSF normal fibroblasts, 48 h, mean ± SD from triplicates
# Method: The results hinted that 6i elicited stronger cytotoxicity and higher selectivity for cancer than normal cells.
# as §1
# [3] = tested on: SR; details: Leukaemia, five-dose 0.01–100 µM
# [4] = tested on: RPMI-8226; details: RPMI-8226, Leukaemia; five-dose 0.01–100 µM
# [5] = tested on: COLO 205; details: COLO 205, Colon cancer; five-dose 0.01–100 µM
# [6] = tested on: HT29; details: HT29, Colon cancer; five-dose 0.01–100 µM
# [7] = tested on: SF-295; details: SF-295, CNS cancer; five-dose 0.01–100 µM
# [8] = tested on: SNB-19; details: SNB-19, CNS cancer; five-dose 0.01–100 µM
# [9] = tested on: M14; details: M14, Melanoma; five-dose 0.01–100 µM
# [10] = tested on: MALME-3M; details: Melanoma, five-dose 0.01–100 µM
# [11] = tested on: SK-MEL-2; details: SK-MEL-2, Melanoma; five-dose 0.01–100 µM
# [12] = tested on: SK-MEL-5; details: SK-MEL-5, Melanoma; five-dose 0.01–100 µM
# [13] = tested on: OVCAR-4; details: OVCAR-4, Ovarian cancer; five-dose 0.01–100 µM
# [14] = tested on: SK-OV-3; details: SK-OV-3, Ovarian cancer; five-dose 0.01–100 µM
# [15] = tested on: 786-0; details: 786-0, Renal cancer; five-dose 0.01–100 µM
# [16] = tested on: SN12C; details: Renal cancer, five-dose 0.01–100 µM
# [17] = tested on: DU-145; details: DU-145, Prostate cancer; five-dose 0.01–100 µM
# [18] = tested on: PC-3; details: PC-3, Prostate cancer; five-dose 0.01–100 µM
# [19] = tested on: BT-549; details: BT-549, Breast cancer; five-dose 0.01–100 µM
# [20] = tested on: HS 578 T; details: Breast cancer, five-dose 0.01–100 µM
# [21] = tested on: MDA-MB-468; details: MDA-MB-468, Breast cancer; five-dose 0.01–100 µM
# [22] = tested on: NCI-H226; test: cells; details: Homo sapiens
# [23] = tested on: HCC-2998; test: cells; details: Homo sapiens
# [24] = tested on: SF-268; test: cells; details: Homo sapiens
# [25] = tested on: SF-539; test: cells; details: Homo sapiens
# [26] = tested on: M14; test: cells; details: Homo sapiens
# [27] = tested on: LOX IMVI; test: cells; details: Homo sapiens
# [28] = tested on: MDA-MB-435; test: cells; details: Homo sapiens
# [29] = tested on: SK-MEL-5; test: cells; details: Homo sapiens
# [30] = tested on: CAKI-1; test: cells; details: Homo sapiens
# [31] = tested on: ACHN; test: cells; details: Homo sapiens
# [32] = tested on: full NCI 59 cell panel; test: cells; details: Homo sapiens
# [33] = target: recombinant hDHFR (Homo sapiens, UniProt P00374); test: DHFR inhibitory assay
# Sequence of recombinant hDHFR (P00374 whole entry): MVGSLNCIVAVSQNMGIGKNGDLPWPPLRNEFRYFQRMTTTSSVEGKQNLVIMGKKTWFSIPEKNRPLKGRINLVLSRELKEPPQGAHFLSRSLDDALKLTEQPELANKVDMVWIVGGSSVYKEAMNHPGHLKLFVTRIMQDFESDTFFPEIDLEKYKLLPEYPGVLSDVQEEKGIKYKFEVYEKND
# Method: DHFR inhibition assay kit (BioVision, K247–100) supplied with recombinant hDHFR was utilised in this assay. The assay was performed as instructed in assay kit[32]. Briefly, in a 96-well clear plate, serial dilutions of the test compound (2 μL) were loaded. […] An assay buffer (100 µl) was used as a Background Control. Then, 40 μL of diluted NADPH in assay buffer (40-fold dilution) was added and mixed well. At 25 °C in the dark, the plate was incubated for 15 min. […] Instantaneously, the absorbance was read at 340 nm for 10–20 min at 25 °C in kinetic mode by Robonik ELISA plate reader. Finally, the activity and relative inhibition percentages were measured using the equations indicated in the assay kit[33–35].
smiles,measurement,setting,value
CCOC(=O)CC[C@H](NC(=O)c1ccc(NC(=O)Cn2cnc3c(c(C)nn3-c3ccc(Br)cc3)c2=O)cc1)C(=O)OCC [Compound 6i],IC50,"[1]; Homo sapiens, MCF7, MCF-7, MTT, 48 h, mean ± SD from triplicates",4.4 ± 0.26 µM
same,Selectivity index,[1]; IC50 HSF cells / IC50 MCF-7,11.02
same,IC50,[2],48.5 ± 2.43 µM
same,TGI,[3],>100 µM
same,TGI,[4],>100 µM
same,TGI,[5],36.7 µM
same,TGI,[6],71.7 µM
same,TGI,[7],31.9 µM
same,TGI,[8],27.3 µM
same,TGI,[9],>100 µM
same,TGI,[10],29.9 µM
same,TGI,[11],89.1 µM
same,TGI,[12],43.1 µM
same,TGI,[13],32.1 µM
same,TGI,[14],67.3 µM
same,TGI,[15],>100 µM
same,TGI,[16],>100 µM
same,TGI,[17],28.8 µM
same,TGI,[18],19.4 µM
same,TGI,[19],>100 µM
same,TGI,[20],45.7 µM
same,TGI,[21],51.3 µM
same,GI50,[22],4.54 µM
same,GI50,[23]; HCC 2998,35.1 µM
same,CC50,"[23]; HCC 2998, read-out: LC50",> 100 µM
same,GI50,[24]; SF-268,7.01 µM
same,CC50,"[24]; SF-268, read-out: LC50",> 100 µM
same,GI50,[25]; SF-539,14.8 µM
same,CC50,"[25]; SF-539, read-out: LC50",73.6 µM
same,GI50,[26]; M14,> 100 µM
same,CC50,"[26]; M14, read-out: LC50",> 100 µM
same,GI50,[27],5.3 µM
same,CC50,[27]; read-out: LC50,58.4 µM
same,GI50,[28]; MDA-MB-435,12.2 µM
same,CC50,"[28]; MDA-MB-435, read-out: LC50",96.1 µM
same,GI50,[29]; SK-MEL-5,19.4 µM
same,CC50,"[29]; SK-MEL-5, read-out: LC50",95.8 µM
same,GI50,[30]; CAKI-1,10.4 µM
same,CC50,"[30]; CAKI-1, read-out: LC50",47 µM
same,GI50,[31],15.1 µM
same,CC50,[31]; read-out: LC50,78.3 µM
same,GI50,"[32]; range over HOP-62, A549/ATCC, HOP-92, NCI-H23, NCI-H226, SF-268, HCT-116, OVCAR-8, LOX IMVI, DU-145, PC-3, 786-0, BT-549, MCF7",3.93 to 9.85 µM
same,GI50,[32]; range over the residual examined cell lines,10.1 to 71 µM
same,CC50,"[32]; read-out: LC50, most of the examined cancer cells",> 100 µM
same,CC50,"[32]; read-out: LC50, range over the 23 cell lines listed in b28 as exceptions",47 to 96.1 µM
same,IC50,[33],2.41 ± 0.13 µM
